Data taken from patent US10603289B2, “Process for the manufacture of ajoene derivatives” (DANMARKS TEKNISKE UNIVERSITET, priority 2010, dated 2020).

Columns and labels:
Format in all cases: cell-based
[1] = test system: rhamnolipid production of planktonic grown P. aeruginosa; assay: Rhamnolipid concentration in cultures quantified by LC-MS; conditions: for rhamnolipid content: OD=1.5 (FIG. 4)
Description: Samples retrieved at OD600=1.5 (dark grey bars), and at OD600=2.0 (light grey bars). Data represent the average of tree individual experiments. Error bars are mean±SD.
To exemplify the actual efficacy of ajoene in inhibiting synthesis of one of the major virulence factors, the concentration of rhamnolipid present in the cultures grown for DNA array and RT-PCR where directly quantified by LC-MS. The production of rhamnolipids is initiated early in stationary phase co-ordinately regulated by the Rhl QS system encoded by the rhlA, rhlB and rhlC genes (PA3479, PA3478 and PA1131) [V. E. Wagner et al., J Bacteriol., 2003, 185, p. 2080-2095 and R. Rahim et al., Mol Microbiol., 2001, 40, p. 708-718]. Samples where therefore retrieved at an OD600 nm of 1.5 and 2.0 to monitor rhamnolipid production before and after the synthesis was fully initiated. […] This concentration therefore almost completely blocks rhamnolipid synthesis. (E,Z) ajoene having an E:Z ratio of 1:4 was used.

[2] = test system: P. aeruginosa biofilms exposed to PMNs; assay: Flow chamber biofilm exposed to PMNs, propidium iodide staining; conditions: biofilm grown four days in the presence of 100 μg/ml ajoene; E:Z 1:4
Experimental: A) The biofilm has grown without ajoene in the medium. B) The biofilm has grown in the presence of 100 μg/mL ajoene in the medium. Red fluorescence indicates necrotic PMN's leaking out their content of DNA (as stained by PI). Green fluorescence indicates top areas of the P. aeruginosa biofilm.
Biofilms exposed to PMN leukocytes produce rhamnolipids that function as a shield and protects the biofilm bacteria from phagocytosis. […] 20-42]. The P. aeruginosa biofilms were grown for four days either in the presence or absence of 100 μg/ml ajoene. When PMNs subsequently were introduced in the flow chambers on top of the biofilms grown in the absence of ajoene, propidium iodide (PI) staining indicated necrosis of the PMNs (FIG. 5A). […] Ajoene treatment therefore rescues the PMN leukocytes by blocking biofilm synthesis of […]. It has previously been shown that rescued PMN's can phagocytose biofilm bacteria [T. Bjarnsholt et al., Microbiology, 2005, 151, p. 3873-3880]. (E,Z) ajoene having an E:Z ratio of 1:4 was used.

[3] = test system: biofilms of P. aeruginosa PAO1; assay: In vitro flow cell biofilm killing, live dead stains and CSLM; conditions: tobramycin or ajoene only
Experimental: Dead cells are stained with the DNA stain PI (Dark grey/black). The biofilm were visualized with CSLM. C) Implant model treated with ajoene and tobramycin.
3873-3880]. It was however unknown what was the active ingredient in the garlic extract. Thus. biofilms of P. aeruginosa strain were either grown in the presence or absence of 100 μg/ml ajoene. At day three the biofilms were treated with 10 μg/ml tobramycin for 24 hours. […] 10 μg/ml tobramycin was therefore chosen for the present study.

[4] = test system: PA2069; assay: DNA microarray, gene expression in ajoene treated P. aeruginosa cultures; conditions: E:Z 1:4, OD600 2.0
Experimental: (§1) DNA microarray analysis was used to identify genes regulated by ajoene treatment. As a reference we have used the QS regulon previously identified by Hentzer et al., [M. Hentzer et al., EMBO J., 2003, 22, p. […] Exponential growing P. aeruginosa cultures were treated with the following four concentrations of ajoene; 10 μg/ml (42.7 μM), 20 μg/ml (85.4 μM), 40 μg/ml (170.8 μM) and 80 μg/ml (341.6 μM). (E,Z) ajoene having an E:Z ratio of 1:4 was used. […] The samples were retrieved at an OD600 nm of 2.0 (optical density) because previous investigations have shown the highest activity among the QS genes at that cell density. Gene expression of the treated cultures was compared to an untreated control.

[5] = test system: PA0852 cbpD; assay: as above; conditions: E:Z 1:4, OD600 2.0
Experimental: as §1

[6] = test system: PA3478 rhlB; assay: as above; conditions: E:Z 1:4, OD600 2.0
Experimental: as §1

[7] = test system: PA1871 lasA; assay: as above; conditions: E:Z 1:4, OD600 2.0
Experimental: as §1

[8] = test system: PA2570 pa1L; assay: as above; conditions: pa1L PA2570 (LecA), E:Z 1:4, OD600 2.0
Experimental: as §1

[9] = test system: PA4141; assay: as above; conditions: E:Z 1:4, OD600 2.0
Experimental: as §1

[10] = test system: PA4175 prpL; assay: as above; conditions: E:Z 1:4, OD600 2.0
Experimental: as §1

[11] = test system: PA2300 chic; assay: as above; conditions: E:Z 1:4, OD600 2.0
Experimental: as §1

[12] = test system: PA3479 rhlA; assay: as above; conditions: E:Z 1:4, OD600 2.0
Experimental: as §1

[13] = test system: PA2146; assay: as above; conditions: E:Z 1:4, OD600 2.0
Experimental: as §1

[14] = test system: lasB; assay: as above; conditions: ajoene 10-80 μg/ml
Experimental: as §1

[15] = test system: PA4142; assay: as above; conditions: E:Z 1:4, OD600 2.0
Experimental: as §1

C=CCSSC=CC[S+]([O-])CC=C (stereo not drawn) [ajoene, (E,Z)-4,5,9-trithiadodeca-1,6,11-triene-9-oxide] was tested, and the “rhamnolipid content compared to the untreated culture” value ([1]; 20 μg/ml ajoene, OD600 nm of 2.0) was “approximately ⅓”, the rhamnolipid content ([1]; 40 μg/ml ajoene) was “below the detection level” and the “rhamnolipid present in the sample” value ([1]; 80 μg/ml ajoene) was “almost no detectable rhamnolipid”. The rhamnolipid content ([1]; 80 μg/ml ajoene) was “below the detection level”, the “necrosis of PMNs on biofilm (PI staining)” value [2] was “no necrosis of the PMNs was observed” and the “killing of the biofilm bacteria, single agent” value [3] was “no or only minor killing”. The “fold change in gene expression compared to an untreated control” value (“fold change in gene expression” below) ([4]; [Ajoene] 10 μg/ml) was −2.3 fold, the “fold change in gene expression” value ([4]; [Ajoene] 20 μg/ml) was −2.4 fold and the “fold change in gene expression” value ([4]; [Ajoene] 40 μg/ml) was −4.0 fold. The “fold change in gene expression” value ([4]; [Ajoene] 80 μg/ml) was −5.3 fold, the “fold change in gene expression” value ([5]; [Ajoene] 10 μg/ml) was −2.8 fold and the “fold change in gene expression” value ([5]; [Ajoene] 20 μg/ml) was −2.5 fold. The “fold change in gene expression” value ([5]; [Ajoene] 40 μg/ml) was −3.9 fold, the “fold change in gene expression” value ([5]; [Ajoene] 80 μg/ml) was −6.9 fold and the “fold change in gene expression” value ([6]; [Ajoene] 10 μg/ml) was −2.6 fold. For the same molecule, the “fold change in gene expression” value ([6]; [Ajoene] 20 μg/ml) was −2.0 fold, the “fold change in gene expression” value ([6]; [Ajoene] 40 μg/ml) was −3.3 fold and the “fold change in gene expression” value ([6]; [Ajoene] 80 μg/ml) was −8.7 fold. The “fold change in gene expression” value ([7]; [Ajoene] 10 μg/ml) was −2.6 fold, the “fold change in gene expression” value ([7]; [Ajoene] 20 μg/ml) was −2.2 fold and the “fold change in gene expression” value ([7]; [Ajoene] 40 μg/ml) was −3.0 fold. The “fold change in gene expression” value ([7]; [Ajoene] 80 μg/ml) was −8.7 fold, the “fold change in gene expression” value ([8]; [Ajoene] 10 μg/ml) was −1.8 fold and the “fold change in gene expression” value ([8]; [Ajoene] 20 μg/ml) was −2.0 fold. For the same molecule, the “fold change in gene expression” value ([8]; [Ajoene] 40 μg/ml) was −3.3 fold, the “fold change in gene expression” value ([8]; [Ajoene] 80 μg/ml) was −6.3 fold and the “fold change in gene expression” value ([9]; [Ajoene] 10 μg/ml) was −1.0 fold. The “fold change in gene expression” value ([9]; [Ajoene] 20 μg/ml) was −1.1 fold, the “fold change in gene expression” value ([9]; [Ajoene] 40 μg/ml) was −1.3 fold and the “fold change in gene expression” value ([9]; [Ajoene] 80 μg/ml) was −5.4 fold. For the same molecule, the “fold change in gene expression” value ([10]; [Ajoene] 10 μg/ml) was −3.7 fold, the “fold change in gene expression” value ([10]; [Ajoene] 20 μg/ml) was −3.3 fold and the “fold change in gene expression” value ([10]; [Ajoene] 40 μg/ml) was −5.3 fold. The “fold change in gene expression” value ([10]; [Ajoene] 80 μg/ml) was −6.8 fold, the “fold change in gene expression” value ([11]; [Ajoene] 10 μg/ml) was −2.5 fold and the “fold change in gene expression” value ([11]; [Ajoene] 20 μg/ml) was −2.1 fold. The “fold change in gene expression” value ([11]; [Ajoene] 40 μg/ml) was −5.1 fold, the “fold change in gene expression” value ([11]; [Ajoene] 80 μg/ml) was −24.6 fold and the “fold change in gene expression” value ([12]; [Ajoene] 10 μg/ml) was −2.2 fold. The “fold change in gene expression” value ([12]; [Ajoene] 20 μg/ml) was −1.5 fold, the “fold change in gene expression” value ([12]; [Ajoene] 40 μg/ml) was −2.6 fold and the “fold change in gene expression” value ([12]; [Ajoene] 80 μg/ml) was −8.8 fold. The “fold change in gene expression” value ([13]; [Ajoene] 10 μg/ml) was −1.3 fold, the “fold change in gene expression” value ([13]; [Ajoene] 20 μg/ml) was −1.8 fold and the “fold change in gene expression” value ([13]; [Ajoene] 40 μg/ml) was −2.6 fold. The “fold change in gene expression” value ([13]; [Ajoene] 80 μg/ml) was −7.3 fold, the “down regulation of lasB (DNA microarray)” value [14] was “not more than 5 fold” and the “fold change in gene expression” value ([15]; [Ajoene] 10 μg/ml) was −2.0 fold. The “fold change in gene expression” value ([15]; [Ajoene] 20 μg/ml) was −2.2 fold, the “fold change in gene expression” value ([15]; [Ajoene] 40 μg/ml) was −2.7 fold and the “fold change in gene expression” value ([15]; [Ajoene] 80 μg/ml) was −5.1 fold.
